Experimental data as given in patent US6545007B2, “Methods for inhibiting the transmission of HIV using topically applied substituted 6-benzyl-4-oxopyrimidines” (Idenix (Cayman) Limited, priority 2000, dated 2003).
pEC50: −log10 of the molar value.

How the values were obtained:
[1] = test system: mock-infected MT-4 cells; assay: Cytotoxicity: viability of mock-infected cells by the MTT method; assay type: cell-based, human
Procedure: (§1) Cells and viruses. MT-4, C8166,H9/IIIB and CEM cells were grown at 37° C. in a 5% CO2 atmosphere in RPMI 1640 medium, supplemented with 10% fetal calf serum (FCS), 100 IU/mL penicillin and 100 μg/mL streptomycin. Cell cultures were checked periodically for the absence of mycoplasma contamination with a MycoTect Kit (Gibco). Human immunodeficiency virus type-I (HIV-1, IIIB strain) was obtained from supernatants of persistently infected H9/IIIB cells.
(§2) Anti-HIV Assays. Activity of the compounds against HIV-1 and HIV-2 multiplication in acutely infected cells was based on the inhibition of virus-induced cytopathicity in MT-4 and C8166 cells, respectively. Briefly, 50 μL of culture medium containing 1×10^4 cells were added to each well of flat-bottom microtiter trays containing 50 μl of culture medium with or without various concentrations of the test compounds. Then 20 μL of an HIV suspension containing 100 CCID50 were added. After a 4-day incubation at 37° C., the number of viable cells was determined by the 3-(4,5-dimethylthiazol-[…])-2,5-diphenyltetrazolium bromide (MTT) method. Cytotoxicity of the compounds was evaluated in parallel with their antiviral activity. It was based on the viability of mock-infected cells, as monitored by the MTT method.

[2] = test system: HIV-1 (IIIB strain); assay type: cell-based; settings: for pEC50: anti-HIV-1 activity, HIV-1-infected MT-4 cells; for SI: selectivity index (CC50/EC50)
Procedure: Compounds. Compounds were solubilized in DMSO at 200 mM and then diluted into culture medium.
as §1
HIV Titration. Titration of HIV was performed in C8166 cells by the standard limiting dilution method (dilution 1:2, four replica wells per dilution) in 96-well plates. The infectious virus titre was determined by light microscope scoring of cytopathicity after 4 days of incubation and the virus titres were expressed as CCID50/mL.
as §2

Row | SMILES | pEC50 [2] | CC50 [1] [nM] | SI [2]
1 | CSc1nc(Cc2c(F)cccc2F)c(C)c(=O)[nH]1 [MC 869] | 6.72 | 200000 | 1,053
2 | O=c1cc(Cc2c(F)cccc2F)nc(SC2CCCCC2)[nH]1 [MC 870] | 7.10 | 200000 | 2,500
3 | Cc1c(Cc2c(F)cccc2F)nc(SC(C)C)[nH]c1=O [MC 881] | 7.30 | > 200000 | >4,000
4 | O=c1cc(Cc2c(Cl)cccc2Cl)nc(SC2CCCC2)[nH]1 [MC 888] | 6.40 | > 200000 | >500
5 | O=c1cc(Cc2c(Cl)cccc2Cl)nc(SC2CCCCC2)[nH]1 [MC 891] | 6.22 | > 200000 | >333
6 | CC(c1ccccc1)c1cc(=O)[nH]c(SC2CCCC2)n1 (stereo not drawn) [MC 892] | 6.22 | 159000 | 333
7 | CC(c1ccccc1)c1cc(=O)[nH]c(SC2CCCCC2)n1 (stereo not drawn) [MC 898] | 6.22 | 149000 | 248
8 | CCC(c1ccccc1)c1cc(=O)[nH]c(SC2CCCC2)n1 (stereo not drawn) [MC 900] | 6.00 | > 200000 | >200
9 | CCC(c1ccccc1)c1cc(=O)[nH]c(SC2CCCCC2)n1 (stereo not drawn) [MC 903] | 5.89 | > 200000 | >154
10 | CCCCSc1nc(Cc2c(F)cccc2F)c(C)c(=O)[nH]1 [MC 905] | 7.10 | > 200000 | >2,500
11 | CSc1nc(Cc2c(Cl)cccc2Cl)c(C)c(=O)[nH]1 [MC 912] | 5.49 | > 200000 | >62
12 | Cc1c(Cc2c(Cl)cccc2Cl)nc(SC2CCCC2)[nH]c1=O [MC 915] | 5.74 | > 200000 | >111
13 | Cc1c(Cc2c(Cl)cccc2Cl)nc(SCC(C)C)[nH]c1=O [MC 916] | 5.92 | > 200000 | >166

More lines, main results first:

Row | pEC50 [2] | SMILES | CC50 [1] [nM] | SI [2]
14 | 6.09 | CSc1nc(Cc2c(F)cccc2F)cc(=O)[nH]1 [MC 871] | 200000 | 247
15 | 6.74 | CCCCSc1nc(Cc2c(F)cccc2F)cc(=O)[nH]1 [MC 872] | 162000 | 900
16 | 5.49 | CSc1nc(Cc2c(Cl)cccc2Cl)cc(=O)[nH]1 [MC 877] | > 200000 | >62
17 | 5.72 | CC(C)Sc1nc(Cc2c(Cl)cccc2Cl)cc(=O)[nH]1 [MC 878] | > 200000 | >105
18 | 6.59 | CCC(C)Sc1nc(Cc2ccccc2F)cc(=O)[nH]1 (stereo not drawn) [MC 880] | 200000 | 769
19 | 6.15 | CCC(C)Sc1nc(Cc2cccc(F)c2)cc(=O)[nH]1 (stereo not drawn) [MC 884] | > 200000 | >286
20 | 6.35 | CC(C)CSc1nc(Cc2c(Cl)cccc2Cl)cc(=O)[nH]1 [MC 885] | > 200000 | >444
21 | 6.36 | CCCCSc1nc(Cc2c(Cl)cccc2Cl)cc(=O)[nH]1 [MC 886] | > 200000 | >454
22 | 5.06 | CCC(C)Sc1nc(Cc2ccc(F)cc2)cc(=O)[nH]1 (stereo not drawn) [MC 889] | > 200000 | 23
23 | 6.05 | CC(C)Sc1nc(C(C)c2ccccc2)cc(=O)[nH]1 (stereo not drawn) [MC 890] | > 200000 | >222
24 | 6.40 | CCC(C)Sc1nc(Cc2cccc([N+](=O)[O-])c2)cc(=O)[nH]1 (stereo not drawn) [MC 897] | 157000 | 392
25 | 6.10 | CCC(c1ccccc1)c1cc(=O)[nH]c(SC(C)C)n1 (stereo not drawn) [MC 899] | 200000 | 250
26 | 6.57 | CCC(C)Sc1nc(Cc2ccccc2Cl)c(C)c(=O)[nH]1 (stereo not drawn) [MC 909] | > 200000 | >741
27 | 6.02 | CCC(C)Sc1nc(Cc2cccc(Cl)c2)c(C)c(=O)[nH]1 (stereo not drawn) [MC 910] | > 200000 | >208
28 | 5.02 | CCC(C)Sc1nc(Cc2ccc(Cl)cc2)c(C)c(=O)[nH]1 (stereo not drawn) [MC 911] | > 200000 | 20
29 | 6.39 | CCC(C)Sc1nc(Cc2ccccc2F)c(C)c(=O)[nH]1 (stereo not drawn) [MC 913] | 140000 | 341
30 | 5.89 | Cc1c(Cc2c(Cl)cccc2Cl)nc(SC(C)C)[nH]c1=O [MC 914] | > 200000 | >154
